Assay results taken from patent US20090087431A1, “METHODS OF TREATING BONE DISORDERS WITH MODULATORS OF AXL” (Wyeth, priority 2007, published 2009).

Assays:
Clone 14 cells = test: Osteocalcin mRNA after siRNA transfection, osteoblast differentiation; format: cell-based, murine; conditions: all tested conditions (with and without BMP2), p<0.05
Experimental: The role of Axl in osteoblast differentiation from an osteoprogenitor cell was investigated using RNA interference in the murine Clone 14 cell line. In these experiments, siRNA reagents against murine Axl were transfected into cells treated with either 0 ng/ml or 100 ng/ml BMP2. The induction of osteocalcin gene expression, an established osteoblast marker, was measured to assess osteoblast differentiation 4 days after the onset of treatment and transfection.
Clone 14 cells were seeded at 20,000 cells/well in a 96-well plate and cultured in DMEM media supplemented with 10% fetal bovine serum (FBS) and 1% L-glutamine. The following day, cells were transfected for 4 hours with siRNA at a final concentration of 20 nM using 0.5% (final) Lipofectamine2000 (Invitrogen, Carlsbad, Calif.). Cells were then cultured in DMEM supplemented with 1% FBS and 1% penicillin/streptomycin. […]
To assess the consequence of Axl knockdown on osteoblast differentiation, osteocalcin mRNA levels were monitored. […]
An additional negative control was the same non-specific, scrambled siRNA described above (NSP). Osteocalcin mRNA levels were monitored by real-time RT-PCR as above using the primers set forth in SEQ ID NO:9, SEQ ID NO:10, and SEQ ID NO:11 and shown below:
Osteocalcin mRNA levels are shown relative to those monitored in cells transfected with a scrambled, non-specific siRNA (NSP). […]

MC3T3-E1 cells = test: Formation of mineralized nodules, Alizarin red staining; format: cell-based, murine; conditions: 20 nM siRNA, Day 17 post-transfection, vs scrambled siRNA or mock
Experimental: MC3T3-E1 cells were seeded at a density of 50,000 cells/well of a 6-well plate and cultured in Alpha media supplemented with 1% glutamine and 10% FBS. The following day the cells were transfected with 20 nM (final concentration) siRNA using 0.4% (final) Oligofectamine (Invitrogen) for 4 hours. The siRNAs used in this study include the pool of Axl siRNAs and the Cbfa1/Runx2 siRNA described above. In addition two control treatments were included: a mock transfection where no siRNA was introduced and a non-specific, scrambled siRNA (as described).
Following transfection, the cells were maintained in Alpha media supplemented with 1% glutamine, 10% FBS and 10 mM β-glycerophosphate, a cofactor necessary for mineralization, with no other osteogenic agents. […]
To determine mineralization, cells were washed in PBS, fixed in cold ethanol and stained with Alizarin red using standard protocols. Semi-quantification of the extent of mineralization was conducted by de-staining the cells in 10% Cetylpyridinium chloride in 10 mM sodium phosphate for 15 minutes at room temperature. Supernatants were removed and absorbance at 570 nm measured. Concentrations were determined by obtaining absorbance measurements of a standard curve of known dilutions of Alizarin red (range from 50-400 uM). Mineralization was visually assessed by the presence of red-stained nodules.

Runx2/Cbfa1: siRNA against Runx2/Cbfa1, 5′-CGUGAAUGGUCAUAAUAACU-3′; negative control (listed as RNA, chemistry not given here)
osteoblast differentiation as monitored by osteocalcin mRNA expression (Clone 14 cells): dramatically repressed
extent of mineralization (visual, Alizarin red) (MC3T3-E1 cells): dramatic reduction
